Results reported in patent US20180030091A1, “COLLAGEN-BINDING SYNTHETIC PEPTIDOGLYCANS FOR USE IN VASCULAR INTERVENTION” (Purdue Research Foundation, priority 2010, published 2018).
Entries after “also recorded” stand apart in the source; their conditions may differ. Where no end group is shown, it is not given here.

Experiments:
Fibrillar collagen [1] = assay: Binding affinity of biotin labeled peptidoglycan to fibrillar collagen; conditions: biotin labeled peptidoglycans, fitted saturation binding curves
Method: Fibrillar collagen (Chronolog, Havertown, Pa.) was coated onto the surface of a 96-well high bind plate (Costar) at a concentration of 50 μg/mL diluted in isotonic glucose. Plates were covered and incubated overnight at 4° C. Unbound collagen was removed by rinsing 3 times with 1×PBS pH 7.4. Plates were then blocked with 1% BSA for 3 hours at room temperature. Peptidoglycan was dissolved at varying concentrations in 1×PBS pH 7.4 containing 1% BSA and were immediately added to the collagen surfaces, and allowed to incubate for 15 min at room temperature. Plates were then rinsed 3 times with 1×PBS pH 7.4 containing 1% BSA. Streptavidin-HRP solution (R&D Systems, Minneapolis, Minn.) was then added to the plates and incubated for 20 minutes at room temperature. […] The color evolving reaction was stopped with 50 μL 2N sulfuric acid and absorbance was measured at 450 nm using an M5 UV Vis Spectrophotometer (Molecular Devices). Plate imperfections (540 nm) were subtracted from absorbance values.
The binding affinities of biotin labeled peptidoglycans, labeled using protocols known in the art, DS-SILY4 and DS-SILY18 were calculated by fitting the saturation binding curves and calculating the inflection point. […]

Fibrillar collagen [2] = assay: Peptidoglycan diffusion from collagen surface; type: binding; conditions: after 1 week of extensive rinsing at 37° C.; applied at 10 μM
Method: The peptidoglycan OS-SILY18-biotin was dissolved at 10 μM in 1×PBS pH 7.4 with 2% BSA and was incubated on fibrillar collagen coated plates prepared as described. The plate was incubated at 37° C. on an orbital shaker and was rinsed extensively with 1×PBS pH 7.4. At various time points up to 11 days, OS-SILY18-biotin was detected on the surface as described for the binding affinity studies. The curve of diffusion of peptidoglycan from the collagen surface was fitted using a hyperbolic decay.
The diffusion of the peptidoglycan DS-SILY18 from a collagen surface was measured by incubating at 37° C. and rinsing extensively in order to mimic blood flow in vivo. Peptidoglycan was incubated on fibrillar collagen surfaces and detected by the same methods for calculating binding affinities. […] It is estimated that complete endothelial cell regrowth occurs within 1 week of balloon injury, and thus this time frame is useful for preventing platelet binding until endothelial cells grow back and provide a permanent cover to the underlying collagen.

[3] = tested on: Human coronary artery endothelial cells (ECs); assay: Endothelial cell proliferation; type: cell-based; conditions: highest concentration tested (final concentrations 35, 3.5, and 0.35 μM); 48 hours
Method: Human coronary artery endothelial cells (ECs) (Lonza, Walkersville, Md.) were seeded in 96-well plates at a cell density of 1.5×10^3 cells/well. Cells were allowed to adhere to the surface for 24 hours and adherent ECs were stained using cell tracker green (Invitrogen, Carlsbad, Calif.). Initial cell number was determined by measuring fluorescence of each well with 492 nm excitation and 517 nm emission.
DS-SILY18 was solubilized in water at a concentration of […] and diluted in water 10 fold for concentrations of 175, 17.5, and 1.75 μM. The DS-SILY solution was diluted 5 fold with cell media for final concentrations of […]. The control consisted of diluting water 5 fold with cell media. 100 μL of media with DS-SILY was added to each well and the cell number was determined 48 hours later by measuring fluorescence. The percent change in cell number in each well was calculated.

[4] = tested on: Whole blood on fibrillar collagen; assay: Inhibition of whole blood binding to collagen under flow; type: cell-based; conditions: 50 μM for 15 min; 5.6 mL/hr, shear rate 1000 s^−1, 5 min of flow
Method: Flow kits were obtained from Ibidi (Martinsried, Germany). Each channel was coated with fibrillar collagen as described for static microplate studies. Excess collagen was removed from the flow channel by extensive rinsing with 1×PBS through the channel. DS-SILY18 was incubated in the channel at a concentration of 50 μM for 15 min at 37° C., and unbound peptidoglycan was rinsed with 1×PBS. Control channels consisted of collagen not treated with peptidoglycan.
Whole blood was pushed through the flow channels by a syringe pump at a flow rate of 5.6 mL/hr, corresponding to a physiologically relevant shear rate of 1000 s^−1 (Badimon L, Badimon J J, Turitto V T, Vallabhajosula S, Fuster V. Platelet thrombus formation on collagen type I—a model of deep vessel injury—influence of blood rheology, von Willebrand Factor, and blood-coagulation. Circulation 1988; 78(6):1431-42). After 5 min of flow, 1×PBS pH 7.4 was pushed through at the same flow rate for 10 min to wash unbound cells. Brightfield images (n=3) were taken of each flow channel with a 10× objective. Images were thresholded and quantified for cellular coverage using ImageJ (NIH, Bethesda, Md.) and MatLab (Mathworks, Natick, Mass.) respectively. Control channels were assumed to have complete cellular coverage.

[5] = tested on: Human platelets on Type I fibrillar collagen; assay: Inhibition of platelet activation on fibrillar collagen after 24 hour rinse (PF4, NAP2); type: cell-based; conditions: unbound peptidoglycan rinsed over 24 hours; PF-4 and Nap-2 release
Method: Type I fibrillar collagen from Chronolog was diluted in isotonic glucose to a concentration of 50 μg/mL. 50 μL of collagen solution was added to each well of a high bind 96-well plate. The plate was incubated overnight at 4° C., and then rinsed 3× with 1×PBS. For microplate assays, peptidoglycan was diluted in 1×PBS at concentrations between 0.0001 μM to 100 μM and 50 μL solution was added to the collagen coated wells. DS, peptide, or 1×PBS were also added to collagen coated wells as controls. Treatments were incubated at 37° C. with shaking at 200 rpm for 15 min. Wells were then rinsed of unbound treatment by removing the treatment solution, adding PBS, and shaking the wells for 24 hours. During the 24 hours, PBS solution was changed 3 times.
Human whole blood was collected from healthy volunteers by venipuncture. The first 5 mL of blood was discarded and approximately 20 mL was then collected into citrated glass vacutainers (BD Bioscience). Blood was centrifuged in the glass tube for 20 min at 200 g at 25° C. The top layer of the centrifuged blood, the platelet rich plasma (PRP), was used for platelet experiments.
PRP (50 μL/well) was added to the microplate for 1 hour at room temperature without shaking. After 1 hour of incubation, 45 μL of PRP was removed from each well and added to a microcentrifuge tube containing […] ETP (107 mM EDTA, 12 mM theophylline, and 2.8 mM prostaglandin E1) to inhibit further platelet activation. These tubes were spun at 4° C. for 30 min at 2000 g to pellet the platelets. The supernatant (platelet serum) was collected for ELISA studies to test for the presence of platelet activation markers PF-4 and NAP2. Sandwich ELISAs were utilized in order to detect each protein. The components for both sandwich ELISAs were purchased from R&D Systems and the provided protocols were followed. Platelet serum was diluted 10,000 times in 1% BSA in 1×PBS for values to fall within a linear range.
Platelet activation was measured through release of platelet factor 4 (PF4) and β-thromboglobulin (NAP2). […] Since the high SILY/DS ratio is expected to provide higher binding affinity to the collagen surface due to multiple interactions, peptidoglycans with the higher SILY/DS ratios were prepared.
The number of peptides per DS molecule was further increased to 18 to create the peptidoglycan DS-SILY18, and the concentration of molecule needed to inhibit platelet activation was tested. […] Within solubility limits, the number of peptides can be increased to achieve maximal platelet inhibition as well as to reduce diffusion over time, where a higher level of peptidoglycans on the denuded vessel wall is sustained.

Substance: DS-SILY18: dermatan sulfate with 18 peptides of the sequence RRANAALKAGELYKSILYGC linked to the glycan (RRANAALKAGELYKSILYGC-NH2; also: 18 copies linked to dermatan sulfate)
- Kd (Fibrillar collagen [1]): 24 nM
- equivalent concentration remaining bound on collagen surface (Fibrillar collagen [2]): approximately 10 nM
- endothelial cell proliferation (percent change in cell number) [3]: significant increase in cell proliferation
- blood cell binding to collagen under flow [4]: inhibition; also recorded: much less blood cell binding to collagen
- concentration at which maximal inhibition of platelet activation was achieved [5]: 10 µM
